{"source": "patent US11779602B2", "about": "“Methods of use for CAR T cells” (ENDOCYTE, INC., priority 2018, dated 2023)", "key": {"[1]": {"system": "MDA-MB-231 tumors", "assay": "CAR-T/EC17 therapy, fixed dose and dose de-escalation, in mice bearing MDA-MB-231 tumors", "format": "in vivo", "conditions": "E2-CAR-T 30 million cells, EC17 dose de-escalation", "description": "The effect of EC17 dose de-escalation was investigated on the anti-tumor activity and the toxicity (body weight changes) of CAR-T therapy. Two different anti-fluorescein scFv were used for the CAR constructions (FIG. 1). The first construct of CAR contains the following domains: antiFL(FITC-E2)scFv-IgG4 hinge (CH2 (L235D, N297Q)-CH3)-CD28 TM-4-1BB-CD3z-T2A-EGFRt. The second construct of CAR contains the following domains: antiFL(FITC-4M5.3)scFv-IgG4 hinge (CH2 (L235D, N297Q)-CH3)-CD28 TM-4-1BB-CD3z-T2A-EGFRt. The nucleic acid sequence and amino acid sequence of the CAR of each construct are shown as SEQ ID NOS:1 to 4. Human T cells were isolated, activated and transduced with a lentiviral vector carrying the appropriate CAR gene. CD4+ T cells with the CAR-modification and CD8+ T cells with the CAR-modification were isolated and cultured separately in vitro for about 7 days. CD4+ CAR-T cells and CD8+ CAR-T cells were mixed at a 1:1 ratio before i.v. administration for animal studies.\nThe second construct 4M5.3-CAR (antiFL(FITC-4M5.3) scFv-IgG4 hinge (CH2 (L235D, N297Q)-CH3)-CD28 TM-4-1BB-CD3z-T2A-EGFRt) was also evaluated. Mice bearing MDA-MB-231 tumors (150-250 mm^3) were used for in vivo studies to evaluate 4M5.3-CAR-T cells. […]"}, "[2]": {"system": "HOS-FRα tumor", "assay": "CRS toxicity and sodium fluorescein rescue in HOS-FRα tumor-bearing mice", "format": "in vivo", "conditions": "i.v. ~95 mg/kg on day 13, plasma 6 hours later", "protocol": "All animal care and use were performed according to NIH guidelines and in compliance with protocols approved by the Purdue University Animal Use and Care Committee. Female 4 to 5-week-old NOD/SCID gamma (NSG™) mice (stock number: 005557) were purchased from The Jackson Laboratory (Bar Harbor, Me.). Unless specifically indicated, all animals were maintained on a FA-deficient diet (TestDiet, St. Louis, Mo.) upon arrival and throughout the study. To establish subcutaneous xenografts, MDA-MB-231 and HOS-FRα were implanted in the right flank region at 2.5×10^6 and 1×10^6 cells per animal, respectively. For intravenous xenografts, THP1-FRβ cells were inoculated at 5×10^6 cells per animal. Subcutaneous tumors were measured 2-3 times per week with a caliper and calculated using the ellipsoidal formula (length×width^2)/2. […] All animal doses (CAR-T cells, EC17, sodium fluorescein) were given intravenously.\nDepending on the CAR-T cell dose and how EC17 is administered, tumor-bearing mice receiving FITC-specific CAR-T cells can experience severe CRS and varying degrees of body weight loss. Therefore, a CRS grading system (0-5 scale) was developed to empirically assess CRS toxicity from animals' gross morphology and social behavior to allow for better timing of CRS rescue. While grades 0 and 5 indicated normal (no CRS) or death (due to severe CRS), respectively, grades 1, 2, and 3-4 were considered mild, light-to-moderate, and severe CRS (FIG. 57A). In addition, all EC17 doses were intentionally given towards the end of any given day to allow potential CRS symptoms to develop overnight. On the days immediately following each EC17 dose, animals were scored and rescue agents such as sodium fluorescein, folic acid and leucovorin were used to mitigate CRS toxicity. In this particular instance, a batch of E2 CAR-T cells with a high EGFRt+CD4/CD8 ratio (˜93:7) was given to HOS-FRα tumor-bearing mice at a mixture of ˜2.5 million CD8 and ˜33 million CD4 on day 0 (FIG. 57B). […]"}}}
{"smiles": "O=C([O-])c1ccccc1-c1c2ccc(=O)cc-2oc2cc([O-])ccc12.[Na+].[Na+]", "note": "[sodium fluorescein, reference compound]", "values": [{"measurement": "antitumor activity after NaFL rescue", "setting": "[1]", "value": "antitumor activity is maintained"}, {"measurement": "effect of rescue on CAR-T cell derived human cytokines", "setting": "[2]", "value": "acted very quickly to reduce CAR-T cell derived human cytokines"}]}
